Measurements reported in patent publication US20230025865A1, “COMPOSITIONS AND METHODS FOR […] […] OF Bcl-2 AND Bcl-xL ANTAGONISTS” (The Regents of the University of Michigan, priority 2019, published 2023).

Assays:
[1] = tissue distribution of APG-1252 and BMS-1244 (FIG. 15); type: in vivo, CD-1 IGS mice; conditions: for 48 hours
Description: The APG-1252 and BMS-1244 concentration versus time curve in different tissues in CD-1 IGS mice.

[2] = system: erythroleukemic HEL, megakaryoblastic leukemic SET-2 and Ruxolitinib resistant HEL cell line; assay: cytotoxicity, CellTiter96 AQueous cell proliferation assay; type: cell-based; conditions: single drug, 72 h, HEL and SET-2 cell lines
Description: (§1) Cells were seeded in a 96 well plate with 3000 cells per well and culture for 24 h, the appropriate amount of drug in a serial dilution manner was added to each well. After incubation for 72 h, Cell Proliferation was detected by CellTiter96™ AQueous Nonradioactive Cell Proliferation Assay Kit.

[3] = system: mantle cell lymphoma (B cell non-Hodgkin's lymphoma) cell line Mino, and Z138 and Rec; assay: as above; type: cell-based; conditions: single drug, 72 h
Description: as §1

[4] = stability of APG-1252 during formulation preparation and lyophilization process (HPLC); type: physicochemical; conditions: final lyophilization product compared to original drug
Description: The contents of APG-1252 and its hydrolysis product BM-1244 were measured before and after formulation preparation and lyophilization process by method described above.

[5] = system: small cell lung cancer (SCLC), colon, breast and acute lymphoblastic leukemia (ALL) cancer xenografts; conditions: cited from earlier work

SMILES	BMS-1244 relative to APG-1252 [1]	cytotoxicity alone [2]	cytotoxicity alone [3]	percentage of BM-1244 [4]	combination with chemotherapeutic agents ([5]; in vivo)	tumor regression as single agent ([5]; twice weekly or weekly dose-schedule)
Cc1c(S(C)(=O)=O)c(-c2cc(F)cc(N3CCN(c4ccc(NS(=O)(=O)c5ccc(N[C@H](CCN6CCC(C(=O)O)CC6)CSc6ccccc6)c(S(=O)(=O)C(F)(F)F)c5)cc4)CC3)c2)c(-c2ccc(Cl)cc2)n1C(C)C [BM-1244, (R)-1-(3-((4-(N-(4-(4-(3-(2-(4-chlorophenyl)-1-isopropyl-5-methyl-4-(methylsulfonyl)-1H-pyrrol-3-yl)-5-fluorophenyl)piperazin-1-yl)phenyl)sulfamoyl)-2-((trifluoromethyl)sulfonyl)phenyl)amino)-4-(phenylthio)butyl)piperidine-4-carboxylic acid]	less than 10%					
Cc1c(S(C)(=O)=O)c(-c2cc(F)cc(N3CCN(c4ccc(NS(=O)(=O)c5ccc(N[C@H](CCN6CCC(C(=O)OCCCP(=O)(O)O)CC6)CSc6ccccc6)c(S(=O)(=O)C(F)(F)F)c5)cc4)CC3)c2)c(-c2ccc(Cl)cc2)n1C(C)C [APG-1252, (R)-(3-((1-(3-((4-(N-(4-(4-(3-(2-(4-chlorophenyl)-1-isopropyl-5-methyl-4-(methylsulfonyl)-1H-pyrrol-3-yl)-5-fluorophenyl)piperazin-1-yl)phenyl)sulfamoyl)-2-((trifluoromethyl)sulfonyl)phenyl)amino)-4-(phenylthio)butyl)piperidine-4-carbonyl)oxy)propyl)phosphonic acid]		similar	similar	0.16%	strong synergy with the chemotherapeutic agents	complete and persistent tumor regression
